Results reported in patent EP0920441B1, “7ALPHA-(EPSILON-AMINOALKYL)-ESTRATRIENES, PROCESS FOR PREPARING THE SAME, PHARMACEUTICAL PREPARATIONS CONTAINING SAID 7ALPHA-(EPSILON-AMINOALKYL)-ESTRATRIENES AND THEIR USE FOR PREPARING MEDICAMENT” (SCHERING AKTIENGESELLSCHAFT, priority 1996, dated 1998).

Legend:
humanem Estrogenrezeptor = molecular target: T1, humanem Estrogenrezeptor (Homo sapiens, UniProt P03372); assay: Transactivation assay for antiestrogenic activity in HeLa cells (HEGO + Vit-TK-CAT reporter); type: cell-based; settings: Hela cells transiently transfected with HEGO and Vit-TK-CAT; in presence of 0,1 nM Estradiol; read-out: IC50 [nM] Hela-Zellen
T1 construct: expressed in transfected cells; host or cells: HeLa cells, transiently transfected with HEGO
T1 sequence (P03372 1-595): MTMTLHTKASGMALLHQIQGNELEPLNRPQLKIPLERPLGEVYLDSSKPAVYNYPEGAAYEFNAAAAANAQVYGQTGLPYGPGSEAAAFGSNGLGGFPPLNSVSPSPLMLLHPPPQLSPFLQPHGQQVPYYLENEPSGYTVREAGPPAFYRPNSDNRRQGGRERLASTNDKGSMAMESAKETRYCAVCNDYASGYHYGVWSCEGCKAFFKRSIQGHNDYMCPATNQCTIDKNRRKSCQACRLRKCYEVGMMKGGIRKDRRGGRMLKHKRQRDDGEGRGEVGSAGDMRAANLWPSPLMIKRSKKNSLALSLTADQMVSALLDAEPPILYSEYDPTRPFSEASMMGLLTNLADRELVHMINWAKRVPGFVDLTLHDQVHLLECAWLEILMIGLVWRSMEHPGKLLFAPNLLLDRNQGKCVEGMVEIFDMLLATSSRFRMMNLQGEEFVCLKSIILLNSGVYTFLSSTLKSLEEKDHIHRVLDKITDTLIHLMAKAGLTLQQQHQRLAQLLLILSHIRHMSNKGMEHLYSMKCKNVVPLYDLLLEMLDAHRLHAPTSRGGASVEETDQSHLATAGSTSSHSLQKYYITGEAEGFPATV
Text: Die antiestrogene Wirkung der erfindungsgemäßen Verbindungen wurde in Transaktivierungsassays bestimmt [Demirpence E., Duchesne M.-J., Badia E., Gagne D. und Pons M.: MVLN Cells: A Bioluminescent MCF-7-Derived Cell Line to study the Modulation of Estrogenic Activity; J. Steroid. Molec.
Die Hela-Zellen sind transient mit humanem Estrogenrezeptor-Expressionsvektor (HEGO) und Vit-TK-CAT Reportergen und die MVLN-Zellen stabil mit dem Reportergen Vit-TK-LUC transfiziert. Es wurde die […] Wirkstärke in Gegenwart von 0,1 nM Estradiol bestimmt.

Uterus = Uterus growth test in the infantile rat, p.o. (antiestrogenic / antiuterotrophic activity); type: in vivo, Ratte; settings: 0,1 mg/kg p.o. once daily for 3 days with 0,5 µg Estradiolbenzoat s.c., inhibition of uterus weight versus EB control
Text: 1. Uteruswachstumstest bei der infantilen Ratte (antiestrogene Wirkung)
Bei Nagern reagiert der Uterus auf die Applikation von estrogenen mit einer Gewichtszunahme (sowohl Proliferation als auch Wassereinlagerung). Dieses Wachstum ist durch gleichzeitige Gäbe antiestrogen-wirkender Verbindungen dosisabhängig zu hemmen. * = Dimethylbenzanthrazen
Infantile weibliche Ratten im Gewicht von 35-45 g bei Versuchsbeginn, pro Dosis 5-6 Tiere.
Für die p.o. Applikation werden die Substanzen in 1 Teil Ethanol (E) gelöst und mit 9 Teilen Erdnußöl (EÖ) aufgefüllt.
Die gerade von den Müttern abgesetzten jungen Ratten werden zur Eingewöhnung einen Tag vor Behandlungsbeginn geliefert und sofort mit Futter - auch in dem Tierkäfig - versorgt. Die Behandlung erfolgt dann täglich einmal über 3 Tage in Kombination mit 0,5 µg Estradiolbenzoat (EB). EB wird immer subcutan (s.c.) appliziert, während die Testsubstanz p.o. (peroral) verabreicht wird. 24 Stunden nach der letzten Applikation werden die Tiere gewogen, getötet und die Uteri entnommen. Von den präparierten Uteri werden die Feuchtgewichte (ohne Inhalt) ermittelt.
• negative Kontrolle: Vehikel (E/EÖ), 0,2 ml/Tier/Tag • positive Kontrolle: 0,5 µg EB/0,1 ml/Tier/Tag
Von den relativen Organgewichten (mg/100 g Körpergewicht) werden für jede Gruppe die Mittelwerte mit Standardabweichung (X+SD), sowie die Signifikanz der Unterschiede zur Kontrollgruppe (EB) im Dunnett-Test (p<0.05) ermittelt. Die Berechnung der Hemmung (in %) gegenüber der EB-Kontrolle erfolgt mit einem Programm. Die relativen Wirksamkeiten der Prüfsubstanzen werden durch eine Kovarianz- und Regressionsanalyse ermittelt.

[1] = system: DMBA-induzierten Mammatumors; assay: DMBA tumour model in the rat (influence on tumour growth); type: in vivo, Ratte
Text: Beeinflussung des Tumorwachstums im DMBA*-Modell bei der Ratte (DMBA-Tumormodell)
Das Wachstum des DMBA-induzierten Mammatumors der Ratte ist weitgehend von Estrogenen und Prolaktin abhängig. Wirksame Antiestrogene, Antigestagene und Aromatasehemmer führen zur Hemmung des Tumorwachsturns. Substanzen, die antigonadotrope und androgene Eigenschaften besitzen, entfalten ebenfalls tumorhemmende Wirkung.
45 - 47 Tage alte weibliche Ratten (Sprague-Dawley, Züchter ZIH oder Möllegard), pro Gruppe 8 - 10 Tiere. *9,10-Dimethyl-1,2-benzanthracen
Die Tiere erhalten einmalig 10 mg DMBA oral. Anschließend werden die Tiere einmal wöchentlich palpatorisch auf Tumorentwicklung untersucht. 6 bis 10 Wochen nach der DMBA-Behandlung entwickeln sich etwa 1 bis 10 Tumoren pro Tier. Die Tumorgröße wird einmal wöchentlich mit Hilfe einer Schiebelehre bestimmt. Hat mindestens ein Tumor eine definierte Größe (150 mm^2 Tumorfläche) erreicht, erfolgt die Ovariektomie der Tiere bzw. beginnt die Behandlung der Tiere mit der Testsubstanz. Die Behandlung erfolgt zumeist täglich über ca. 28 Tage (Details Abwicklung siehe Versuchsplan). Die Tumorgröße wird weiterhin 1 x /Woche ermittelt.
Die Gesamttumorgröße pro Tier wird vor Beginn der Behandlung ermittelt (Vorwerte). Für jede Gruppe wird dann der Mittelwert der prozentualen Veränderungen der Tumorgröße, bezogen auf die initialen Werte, errechnet. […]

[2] = Antiestrogenic activity (test not specified)

| Compound | IC50 (humanem Estrogenrezeptor) | 0,1 mg/kg p.o. % Hemmung (Uterus) | Hemmung des Tumorwachstums ([1]; oral dose 10 mg/kg/Tag (Figur 1)) | Hemmung des Tumorwachstums ([1]; oral dose 3 mg/kg/Tag (Figur 1)) | antiestrogene Wirksamkeit [2] |
| --- | --- | --- | --- | --- | --- |
| CN(CCCCC[C@@H]1Cc2cc(O)ccc2[C@H]2CC[C@@]3(C)[C@@H](C[C@@H](F)[C@]3(C)O)[C@H]12)CCCSCCCC(F)(F)C(F)(F)F [Beispiel 15, 16α-Fluor-17α-methyl-7α-{5-[N-methyl-N-3-(4,4,5,5,5-pentafluorpentylthio)-propylamino]-pentyl}-estra-1,3,5(10)-trien-3,17β-diol] | 0.06 nM | 33% | – | – | – |
| C[C@]12CC[C@@H]3c4ccc(O)cc4C[C@@H](CCCCCCCCC[S+]([O-])CCCC(F)(F)C(F)(F)F)[C@H]3[C@@H]1CC[C@@H]2O (stereo partly drawn) [ZM 182 780, 7α-[9-(4,4,5,5,5-Pentafluorpentansulfinyl)-nonyl]-estra-1,3,5(10)-trien-3,17β-diol, reference compound] | – | 8% | nur eine geringfügige Wirkung im Vergleich zur intakten Kontrolle | – | – |
| CN(CCCCC[C@@H]1Cc2cc(O)ccc2[C@@H]2[C@@H]1[C@@H]1CC[C@H](O)[C@@]1(C)C[C@@H]2F)CCCSCCCC(F)(F)C(F)(F)F [Beispiel 12, 11β-Fluor-7α-{5-(N-methyl-N-3-(4,4,5,5,5-pentafluorpentylthio)-propytamino]-pentyl}-estra-1,3,5(10)-trien-3,17β-diol] | 0.06 nM | 91% | – | – | – |
| C[C@]12C[C@H](F)[C@@H]3c4ccc(O)cc4C[C@@H](CCCCCN4CCC[C@H]4CSCCCC(F)(F)C(F)(F)F)[C@H]3[C@@H]1CC[C@@H]2O [Beispiel 29, 11β-Fluor-7α-{5-[2-(4,4,5,5,5-pentafluorpentylthiomethyl)-pyrrolidin-1-yl]-pentyl}-estra-1,3,5(10)-trien-3,17β-diol] | 0.13 nM | 80% | – | stärker als eine orale Dosis von 10 mg/kg/Tag 7α-[9-(4,4,5,5,5-Pentafluorpentansulfinyl)-nonyl]-estra-1,3,5(10)-trien-3,17β-diol | – |
| CN(CCCCC[C@@H]1Cc2cc(O)ccc2[C@@H]2[C@@H]1[C@@H]1CCC(=O)[C@@]1(C)C[C@@H]2F)CCCSCCCC(F)(F)C(F)(F)F [Beispiel 40, 11β-Fluor-7α-{5-[N-methyl-N-3-{4,4,5,5,5-pentafluorpentylthio)-propylamino]-pentyl}-3-hydroxy-estra-1,3,5(10)-trien-17-on] | – | – | – | – | stark antiestrogen wirksam |
| CN(CCCCC[C@@H]1Cc2cc(O)ccc2[C@H]2CC[C@@]3(C)[C@@H](C[C@@H](F)[C@]3(C)O)[C@H]12)CCCS(=O)(=O)CCCC(F)(F)C(F)(F)F [Beispiel 18, 16α-Fluor-17α-methyl-7α-{5-[N-methyl-N-3-(4,4,5,5,5-pentafluorpentansulfonyl)-propylamino]-pentyl}-estra-1,3,5(10)-trien-3,17β-diol] | 0.05 nM | 16% | – | – | – |
| CN(CCCCC[C@@H]1Cc2cc(O)ccc2[C@@H]2[C@@H]1[C@@H]1CC[C@](C)(O)[C@@]1(C)C[C@@H]2F)CCCSCCCC(F)(F)C(F)(F)F [Beispiel 36, 11β-Fluor-17α-methyl-7α-{5-[N-methyl-N-3-(4,4,5,5,5-pentafluorpentylthio)-propylamino]-pentyl}-estra-1,3,5(10)-trien-3,17β-diol] | 0.05 nM | 62% | – | – | – |
| C[C@]1(O)CC[C@H]2[C@@H]3[C@H](CCCCCN4CCC[C@H]4CSCCCC(F)(F)C(F)(F)F)Cc4cc(O)ccc4[C@H]3[C@@H](F)C[C@@]21C [Beispiel 31, 11β-Fluor-17α-methyl-7α-{5-[(2S)-2-(4,4,5,5,5-pentafluorpentylthiomethyl)-pyrrolidin-1-yl]-pentyl}-estra-1,3,5(10)-trien-3,17β-diol] | 0.1 nM | 71% | – | – | – |
| CN(CCCCC[C@@H]1Cc2cc(O)ccc2[C@H]2CC[C@@]3(C)C(=CC[C@@H]3O)[C@H]12)CCCS(=O)(=O)CCCC(F)(F)C(F)(F)F [Beispiel 25, 7α-{5-[N-Methyl-N-3-(4,4,5,5,5-pentafluorpentansulfonyl)-propylamino]-pentyl}-estra-1,3,5(10),14-tetraen-3,17β-diol] | 0.06 nM | – | – | – | – |
